# Results as given in patent publication US20230382909A1, “BICYCLIC COMPOUNDS” (Aligos Therapeutics, Inc., priority 2022, published 2023).
# pEC50: −log10 of the molar value.
# What was measured:
# [1] = Cell viability by CellTiter-Glo 2.0 (intracellular ATP content) in HepG2.117 cells; type: cell-based; conditions: human, CellTiter-Glo 2.0, 3 days incubation
# Protocol: (§1) The following assay procedure describes the HBV antiviral assay, using HepG2.117 cells, which carry a stably integrated genotype D HBV genome under the control of a Tet-off promoter, and intracellular HBV DNA quantification as endpoint. Cell viability is assessed in parallel by measuring the intracellular ATP content using CellTiter-Glo 2.0 (Promega).
# (§2) On day 1, medium is removed from each well, the test articles are diluted in culture medium without doxcycyline and 100 μL was added to cell culture wells (9 concentrations, 4-fold dilution). For each plate, 6 untreated (merely DMSO) wells are included. The final concentration of DMSO in the culture medium is 2%. Each plate is prepared in duplicate (one for HBV DNA extraction, one for CellTiter-Glo 2.0 measurement). The cells are incubated at 37° C. and 5% CO2 for 3 days.
# (§3) On day 4, cell viability is assessed using CellTiter-Glo 2.0 and cell lysates are prepared for HBV DNA extraction and subsequent quantification by qPCR.
# Using the other plates, the cell viability is quantified by CellTiter-Glo 2.0 according to the manufacturer's manual. In brief, 100 μL of reagent solution is added to the culture plates and shaken for 2′. The plates are incubated at rt for 10 min and luminescence signal is subsequently measured on a VarioSkan Lux (ThermoFisher) plate reader.
# (§4) Cell viability is calculated as follows: % Cell viability=(luminescence value of test sample)/(average luminescence value of 2% DMSO control)×100%. HBV DNA inhibition was calculated as follows: 100−(HBV DNA copy number of test sample)/(average HBV DNA copy number of 2% DMSO control)×100%. No normalization to entecavir is required due to the excellent dynamic window of this assay. The CC50, EC50 and EC9o values were determined by dose-response curves fitted using non-linear regression.
# [2] = system: HBV; experiment: HBV-DNA antiviral assay using HepG2.117 cells; type: cell-based, HBV genotype D; conditions: Hepatitis B virus, HepG2.117, 72 h
# Protocol: as §1
# On day 0, HepG2.117 cells (which are maintained in routine cell culture with doxycycline present in the medium at a final concentration of 1 μg/mL) are seeded in 96-well plates (white with clear bottom) at a density of 2.0×10^4 cells/well (0.1 mL/well) in medium without doxycycline to induce pgRNA transcription and subsequent formation of HBV particles. The cells are incubated at 37° C. and 5% CO2.
# as §2, §3
# HBV DNA Quantification by qPCR
# Medium is removed from each well and 100 μL of 0.33% NP-40 in H2O was added to each well. Plates are sealed, incubated at 4° C. for 5 mins, vortexed extensively and centrifuged briefly. Next, 35 μL of lysate is added to 65 μL QuickExtract DNA Extraction Solution (Epicentre) in a PCR plate for each well. PCR plate is incubated at 65° C. for 6 mins, 98° C. for 2 mins and finally cooled to 4° C. HBV DNA is then quantified by qPCR with HBV-specific primers and probes as specified in Table 3 using the Bio-Rad SSOAdvanced Universal Probes Supermix on a CFX96 machine (Bio-Rad). The PCR cycle program consisted of 95° C. for 3 mins, followed by 40 cycles at 95° C. for 10 sec and 60° C. for 30 sec.
# A DNA standard is prepared by dilution of an IDT gBlock corresponding to the amplicon with concentrations ranging from 10^2 to 10^8 copies/input (i.e., per 4 μL) and used to generate a standard curve by plotting Cq values vs. HBV DNA standard concentration. The quantity of HBV DNA in each sample is determined by interpolating from the standard curve.
# as §4
Compound,CC50 at 3 days [1],pEC50 [2]
"Cc1cc(C)n(-c2nc3c(c(=O)n2-c2ccc(N4CCOCC4)nc2)C[C@@H](C)N(C(=O)c2ccc(Br)c(C(F)(F)F)c2)C3)n1 [Compound 27, (6R)-7-[4-bromo-3-(trifluoromethyl)benzoyl]-2-(3,5-dimethylpyrazol-1-yl)-6-methyl-3-(6-morpholino-3-pyridyl)-6,8-dihydro-5H-pyrido[3,4-d]pyrimidin-4-one]",> 500 nM,> 7.30
"Cc1cc(C)n(-c2nc3c(c(=O)n2-c2ccc(N[C@H]4C[C@@H](O)C4)nc2)C[C@@H](C)N(C(=O)c2ccc(Br)c(C(F)(F)F)c2)C3)n1 [Compound 35, (R)-7-(4-bromo-3-(trifluoromethyl)benzoyl]-2-(3,5-dimethyl-1H-pyrazol-1-yl)-3-(6-(((1s,3S)-3-hydroxycyclobutyl)amino)pyridin-3-yl)-6-methyl-5,6,7,8-tetrahydropyrido[3,4-d]pyrimidin-4(3H)-one]",> 500 nM,> 7.30
"Cc1cc(C)n(-c2nc3c(c(=O)n2-c2cnc4c(c2)ncn4C)C[C@@H](C)N(C(=O)c2ccc(Br)c(C(F)(F)F)c2)C3)n1 [Compound 19, (6R)-7-[4-bromo-3-(trifluoromethyl)benzoyl]-2-(3,5-dimethylpyrazol-1-yl)-6-methyl-3-(3-methylimidazo[4,5-b]pyridin-6-yl)-6,8-dihydro-5H-pyrido[3,4-d]pyrimidin-4-one]",> 500 nM,> 7.30
"Cc1cc(C)n(-c2nc3c(c(=O)n2-c2ccc(OCC(N)=O)cc2)C[C@@H](C)N(C(=O)c2ccc(Br)c(C(F)(F)F)c2)C3)n1 [Compound 5, (R)-2-(4-(7-(4-bromo-3-(trifluoromethyl)benzoyl)-2-(3,5-dimethyl-1H-pyrazol-1-yl)-6-methyl-4-oxo-5,6,7,8-tetrahydropyrido[3,4-d]pyrimidin-3(4H)-yl)phenoxy)acetamide]",> 500 nM,> 7.30
"Cc1cc(C)n(-c2nc3c(c(=O)n2-c2ccc(N4CCN(C(C)C)CC4)nc2)C[C@@H](C)N(C(=O)c2ccc(Br)c(C(F)(F)F)c2)C3)n1 [Compound 34, (6R)-7-[4-bromo-3-(trifluoromethyl)benzoyl]-2-(3,5-dimethylpyrazol-1-yl)-3-[6-(4-isopropylpiperazin-1-yl)-3-pyridyl]-6-methyl-6,8-dihydro-5H-pyrido[3,4-d]pyrimidin-4-one]",> 500 nM,> 7.30
"Cc1cc(C)n(-c2nc3c(c(=O)n2-c2ccc(NC[C@H](O)CO)nc2)C[C@@H](C)N(C(=O)c2ccc(Br)c(C(F)(F)F)c2)C3)n1 [Compound 31, (6R)-7-[4-bromo-3-(trifluoromethyl)benzoyl]-3-[6-[[(2S)-2,3-dihydroxypropyl]amino]-3-pyridyl]-2-(3,5-dimethylpyrazol-1-yl)-6-methyl-6,8-dihydro-5H-pyrido[3,4-d]pyrimidin-4-one]",> 500 nM,6.30 to 7.30
"CNC(=O)c1ccc(-n2c(-n3nc(C)cc3C)nc3c(c2=O)C[C@@H](C)N(C(=O)c2ccc(Br)c(C(F)(F)F)c2)C3)cc1Cl [Compound 2, (R)-4-(7-(4-bromo-3-(trifluoromethyl)benzoyl)-2-(3,5-dimethyl-1H-pyrazol-1-yl)-6-methyl-4-oxo-5,6,7,8-tetrahydropyrido[3,4-d]pyrimidin-3(4H)-yl)-2-chloro-N-methylbenzamide]",> 500 nM,> 7.30
"Cc1cc(C)n(-c2nc3c(c(=O)n2-c2ccc4c(cnn4C)c2)C[C@@H](C)N(C(=O)c2ccc(Br)c(C(F)(F)F)c2)C3)n1 [Compound 13, (6R)-7-[4-bromo-3-(trifluoromethyl)benzoyl]-2-(3,5-dimethylpyrazol-1-yl)-6-methyl-3-(1-methylindazol-5-yl)-6,8-dihydro-5H-pyrido[3,4-d]pyrimidin-4-one]",> 500 nM,> 7.30
